Key:
[1] = UV-Vis absorption and fluorescence spectroscopy of the Oxazine library; type: physicochemical; details: for Extinction coefficient: Beer's Law plots; for Quantum yield: relative, references Oxazine 1, Oxazine 170, Rhodamine 101
Summary of the method: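 Absorbance measured at room temperature in 1-cm quartz cuvette, reference corrected; extinction coefficient from Beer's Law plots of absorbance vs concentration. Fluorescence spectra corrected for PMT response; relative quantum yields averaged over multiple measurements against Oxazine 1, Oxazine 170 and Rhodamine 101 references.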

nerve and muscle tissue = assay: Ex vivo tissue staining nerve-specificity screening
Source text: Oxazine derivative library nerve-specificity screening. All 64 Oxazine derivatives were screened for nerve specificity using a previously described ex vivo tissue staining assay (Gibbs, S. L., et al., PloS one 8, e73493 (2013)). Ex vivo nerve and muscle tissue fluorescence intensities varied, with many compounds showing minimal nerve or muscle tissue fluorescence above control autofluorescence following Oxazine derivative staining. […] All Oxazine derivatives were further screened for nerve-specificity in vivo using both direct and systemic administration strategies. The direct administration strategy enabled quantification of nerve-specificity and contrast following fluorophore contact with the nerves and surrounding tissues without the requirement of BNB penetration, providing the most similar comparison to ex vivo nerve-specificity screening. The systemic administration screening studies required not only nerve specificity, but also adequate biodistribution and BNB penetration to generate SBR for visualization.

[2] = system: murine brachial plexus and sciatic nerves; assay: Nerve-specificity screening using direct/topical administration; type: in vivo, mouse; details: 125 μM, imaged 30 minutes after staining
Summary of the method: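 Oxazine fluorophores (125 μM in 10% DMSO/5% Kolliphor/65% serum/20% PBS) applied topically to exposed murine nerve for 5 min, then saline-irrigated. Fluorescence imaged 30 min later (620/60 nm excitation, 700/75 nm emission); nerve-to-muscle and nerve-to-adipose ratios taken from co-registered regions of interest, blinded.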

[3] = system: murine brachial plexus and sciatic nerves; assay: Nerve-specificity screening using systemic administration; type: in vivo; details: IV, 200 nmol, 4 hours prior to imaging
[4] = system: mouse brachial plexus nerves; assay: Nerve imaging at depth under muscle tissue; type: in vivo
Procedure: Nerve imaging at depth studies using a model Oxazine derivative. Oxazine 4 and LGW01-08 were used to stain mouse brachial plexus nerves using both direct and systemic administration methods using the same dose and administration methods previously described. The ability to image the brachial plexus nerve at depth was assessed under varying thicknesses of mouse muscle tissue. Muscle tissue was resected from the peritoneal muscle layer and measured for thickness. One and two layers of resected peritoneal muscle tissue was placed over the stained nerves, providing one and two mm thick homogenous tissue through which the stained nerve tissue was imaged. The same muscle tissue was used to cover the stained nerves from both fluorophores with care taken to orient the muscle in the same way to ensure equivalent comparison. The imaging system configuration was changed to reflect the 700 nm channel in clinically relevant FGS systems (Tummers et al., Eur J Surg Oncol 40, 850-858 (2014); Troyan et al., Ann Surg Oncol 16, 2943-2952 (2009); Ashitate et al., The Journal of surgical research 176, 7-13 (2012); Verbeek et al., The Journal of urology 190, 574-579 (2013); Hillary et al., Langenbecks Arch Surg 403, 111-118 (2018); and Mery et al., Oncotarget 8, 109559-109574 (2017). For fluorescence excitation, the PhotoFluor II was filtered with a 650±22.5 nm bandpass excitation filter. The resulting fluorescence was collected with a 720±30 nm bandpass emission filter for image collection. Camera exposure times ranged from 0.025-4 s for fluorescence image collection.
Image analysis of intraoperative nerve contrast. Custom written MatLab code was used to analyze the tissue specific fluorescence where regions of interest (ROIs) were selected on the nerve, muscle and adipose tissue using the white light images, but blinded to the fluorescence images. These ROIs were then analyzed on the co-registered, matched fluorescence images permitting assessment of the mean tissue intensities as well as the nerve to muscle (N/M) and nerve to adipose (N/A) ratios. Fluorescence intensity measurements were divided by the exposure time to obtain normalized intensity per second measurements. Mean nerve to background tissue ratios (N/M and N/A) were calculated for each Oxazine derivative. For nerve imaging at depth image analysis, fluorescent line profiles and 3-D intensity topographical plots were generated in ImageJ using the plot profile and surface plot functions, respectively. The line profiles were background and exposure time corrected by dividing by the exposure time of each image and subtracting the average intensity of background pixels from the entire line profile. […]

[5] = reported nerve-specific fluorophores; cited from earlier work

SMILES | Max Abs [1] | Max Em [1] | Max Ex [1] | Extinction coefficient [1] | Quantum yield [1] | ex vivo nerve specificity (N/M SBR vs unstained control group) (nerve and muscle tissue) | nerve specificity (N/M contrast vs control group) via direct administration [2] | nerve specificity / nerve contrast (N/M vs control group) following systemic administration [3] | width of smallest nerve branches distinguished under muscle tissue ([4]; direct administration, under 1 mm of muscle tissue) | thickness of muscle tissue under which nerve tissue could be identified ([4]; following both systemic and direct administration, 700 nm channel filters) | emission wavelength maximum [5]
CC/N=c1/cc2oc3cc4c(cc3nc-2cc1C)C(C)=CC(C)(C)N4 [LGW01-44, (Z)—N-(2,2,4,8-tetramethyl-1,2-dihydro-9H-pyrido[3,2-b]phenoxazin-9-ylidene)ethanaminium] | 648 nm | 664 nm | 650 nm | 40124 M⁻¹ cm⁻¹ | 21.63% | significantly higher N/M SBR compared to the unstained control group | positive nerve specificity | negative for nerve contrast | – | – | –
CCN=c1cc2oc3cc(NCC)c(C)cc3nc-2cc1C.[O-][Cl+3]([O-])([O-])O [OX-4, reference compound] | 618 nm | 634 nm | 620 nm | 77156 M⁻¹ cm⁻¹ | 38.37% | lacked nerve-specificity ex vivo | – | – | did not possess the ability to resolve smaller branches | 1 mm | 635 nm

From patent US11492359B2, “Near-infrared nerve-sparing fluorophores” (OREGON HEALTH & SCIENCE UNIVERSITY, priority 2018, dated 2022)
